Assay results: ChEMBL document CHEMBL1141403, “New adamantane-based spiro 1,2,4-trioxanes orally effective against rodent and simian malaria” (J Med Chem, 2007)
Activity calls are given as the source filed them. The rule behind the calls is not given here.

Tests used:
[1] = tested on: Plasmodium yoelii nigeriensis; assay: Antimalarial activity at day 4 against Plasmodium yoelii nigeriensis infected in Swiss mice (Mus musculus) at 96 mg/kg peroral dose; type: functional; conditions: route oral
[2] = tested on: Plasmodium yoelii nigeriensis; assay: Antimalarial activity against Plasmodium yoelii nigeriensis infected Swiss mice (Mus musculus) at 48 mg/kg peroral dose over 4 days; type: functional; conditions: route oral
[3] = tested on: Plasmodium yoelii nigeriensis; assay: Antimalarial activity against Plasmodium yoelii nigeriensis infected Swiss mice (Mus musculus) at 96 mg/kg intramuscular dose over 4 days; type: functional
[4] = Partition coefficient, log P of the compound; type: physicochemical; conditions: octanol/water
Plasmodium cynomolgi [5] = assay: Antimalarial activity against Plasmodium cynomolgi infected Rhesus monkey at 10 mg/kg peroral dose over 4 days; type: functional; conditions: route oral
Plasmodium cynomolgi [6] = assay: Antimalarial activity against Plasmodium cynomolgi infected Rhesus monkey at 20 mg/kg peroral dose after 5 days; type: functional; conditions: route oral
Mus musculus [7] = assay: Survival of Swiss mice (Mus musculus) infected with Plasmodium yoelii nigeriensis at 48 mg/kg, peroral after 28 days; type: functional, organism-based; set-up: dose 48 mg/kg
Plasmodium cynomolgi [8] = assay: Antimalarial activity against Plasmodium cynomolgi infected Rhesus monkey at 10 mg/kg intramuscular dose over 4 days; type: functional, organism-based; set-up: dose 10 mg/kg
[9] = tested on: Plasmodium yoelii nigeriensis; assay: Antimalarial activity against Plasmodium yoelii nigeriensis infected Swiss mice (Mus musculus) at 24 mg/kg peroral dose over 4 days; type: functional; conditions: route oral
Mus musculus [10] = assay: Survival of Swiss mice (Mus musculus) infected with Plasmodium yoelii nigeriensis at 96 mg/kg, peroral after 28 days; type: functional, organism-based; set-up: dose 96 mg/kg
Mus musculus [11] = assay: Survival of Swiss mice (Mus musculus) infected with Plasmodium yoelii nigeriensis at 96 mg/kg, intramuscular after 28 days; type: functional, organism-based; set-up: dose 96 mg/kg
Mus musculus [12] = assay: Survival of Swiss mice (Mus musculus) infected with Plasmodium yoelii nigeriensis at 24 mg/kg, peroral after 28 days; type: functional, organism-based; set-up: dose 24 mg/kg

| Compound | Activity [1] [%] | Activity [2] [%] | Activity [3] [%] | logP [4] | Activity (Plasmodium cynomolgi [5]) [%] | Activity (Plasmodium cynomolgi [6]) [%] | Activity (Mus musculus [7]) | Activity (Plasmodium cynomolgi [8]) | Activity [9] [%] | Activity (Mus musculus [10]) | Activity (Mus musculus [11]) | Activity (Mus musculus [12]) |
| --- | --- | --- | --- | --- | --- | --- | --- | --- | --- | --- | --- | --- |
| C=C(c1ccc2c(c1)Cc1ccccc1-2)C1COC2(OO1)C1CC3CC(C1)CC2C3 (stereo not drawn) | 100 | 100 | 100 | 6.39 | 100 | 100 | Active | inactive | 100 | Active |  |  |
| C=C(c1ccc2c(c1)CCCC2)C1COC2(OO1)C1CC3CC(C1)CC2C3 (stereo not drawn) | 100 | 100 | 100 | 5.96 |  |  |  |  |  | Active |  |  |
| C=C(c1ccc2ccc3ccccc3c2c1)C1COC2(OO1)C1CC3CC(C1)CC2C3 (stereo not drawn) | 100 | 100 | 69 | 6.65 |  |  |  |  |  | Active | inactive |  |
| C=C(c1ccc2ccccc2c1)C1COC2(OO1)C1CC3CC(C1)CC2C3 (stereo not drawn) | 100 | 100 | 71 | 5.65 |  |  |  |  |  |  | inactive |  |
| C=C(c1cccc2ccccc12)C1COC2(OO1)C1CC3CC(C1)CC2C3 (stereo not drawn) | 100 | 100 | 87 | 5.65 |  |  |  |  |  | Active | inactive |  |
| C=C(C1COC2(CCCCC2)OO1)C12CC3CC(CC(C3)C1)C2 (stereo not drawn) | 52 |  |  | 4.79 |  |  |  |  |  | inactive | inactive |  |
| C=C(c1ccc2c(ccc3ccccc32)c1)C1COC2(OO1)C1CC3CC(C1)CC2C3 (stereo not drawn) | 100 | 100 | 100 | 6.65 |  |  |  |  |  |  |  |  |
| CCO[C@H]1O[C@@H]2O[C@@]3(C)CC[C@H]4[C@H](C)CC[C@@H]([C@H]1C)[C@@]24OO3 [ARTEMOTIL] |  | 100 |  |  |  |  | Active |  | 100 |  |  |  |
| C=C(C1COC2(OO1)C1CC3CC(C1)CC2C3)C12CC3CC(CC(C3)C1)C2 (stereo not drawn) | 70 |  | 14 | 5.43 |  |  |  |  |  | inactive | inactive |  |
| C=C(c1ccccc1)C1COC2(OO1)C1CC3CC(C1)CC2C3 (stereo not drawn) | 99 |  | 97 | 4.65 |  |  |  |  |  | inactive | inactive |  |
| C=C(C1COC2(CCCC2)OO1)C12CC3CC(CC(C3)C1)C2 (stereo not drawn) | 57 |  | 38 | 4.38 |  |  |  |  |  | inactive | inactive |  |
| C[C@H]1[C@H](OC(=O)CCC(=O)O)O[C@@H]2O[C@@]3(C)CC[C@H]4[C@H](C)CC[C@@H]1[C@@]24OO3 [ARTESUNATE] |  | 100 |  | 3.04 |  |  | Active |  | 100 |  |  | inactive |
